From US8426408B2, “Pyrimidine inhibitors of kinases” (AbbVie Inc., priority 2009, dated 2013) come the findings set out here.

One test addresses T1, Aurora B (Homo sapiens, UniProt Q96GD4).
T1 construct: Active Aurora B enzyme (recombinant residues 1-344)
In words: Aurora B enzyme inhibition (time-resolved fluorescence, histone H3 peptide). Format: biochemical. To be noted: 1 mM ATP. In a few lines:
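IC50s came from an exponential fit of inhibition against inhibitor concentration, with phosphorylation read as the 665/615 nm time-resolved fluorescence ratio after EDTA stop using Eu-anti-phospho-H3 and SA-APC. The 1 h reaction used Aurora B 1-344 plus GST-INCENP, biotin-histone H3 1-21 peptide and 1 mM ATP in pH 7.4 HEPES buffer.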

The target in the next test is T2, Aurora A (Homo sapiens, UniProt O14965).
T2 sequence (O14965 1-403): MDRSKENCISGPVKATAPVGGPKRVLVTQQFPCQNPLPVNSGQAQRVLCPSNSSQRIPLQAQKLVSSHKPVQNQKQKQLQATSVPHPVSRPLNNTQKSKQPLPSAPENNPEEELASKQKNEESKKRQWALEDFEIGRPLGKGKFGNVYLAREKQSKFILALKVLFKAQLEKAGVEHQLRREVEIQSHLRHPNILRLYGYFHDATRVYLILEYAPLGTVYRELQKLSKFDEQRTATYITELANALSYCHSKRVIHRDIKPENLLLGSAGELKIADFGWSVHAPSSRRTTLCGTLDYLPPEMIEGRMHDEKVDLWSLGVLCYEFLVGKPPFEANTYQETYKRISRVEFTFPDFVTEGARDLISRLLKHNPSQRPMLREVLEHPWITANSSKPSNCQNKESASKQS
In words: Aurora A enzyme inhibition (time-resolved fluorescence, STK substrate-2). Format: biochemical. To be noted: 1 mM ATP. The method, boiled down: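 Phosphorylation of biotinylated STK substrate-2 at 1 mM ATP, 1 h, Hepes buffer pH 7.4 (MgCl2, sodium orthovanadate, Triton X-100). After EDTA quench, 665/615 nm time-resolved fluorescence ratio read via europium anti-phospho antibody and SA-XL665; IC50 from exponential fit versus inhibitor concentration.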

For test [1], the target named is T3, KDR (Homo sapiens, UniProt P35968). The test can be described thus: KDR cellular assay (KDR receptor phosphorylation ELISA). Further details: expressed in transfected cells; host or cells: 3T3 (embryonic mouse) cells. Format: cell-based. To be noted: KDR transfected 3T3 (embryonic mouse) cells, VEGF stimulated; read-out: IC50 inhibition of KDR phosphorylation. The protocol: The ability of compounds to inhibit KDR receptor phosphorylation in cells was measured by ELISA following the protocol outlined below.
KDR transfected 3T3 (embryonic mouse) cells added to 96-well tissue culture plates at 20,000 cells/well.
Plates were covered and placed in a 37° C. humidified incubator with 5% CO2 overnight, to allow cells to adhere.
Coating solution was prepared: 500 l/vial PBS was added to 2 vials of anti-KDR antibody, then 1 ml solubilized anti-KDR antibody into 29.0 ml bicarbonate buffer. Coating solution was added to all wells at 150 µl/well (final amount anti-KDR=1 µg/well) and placed at 4° C. overnight.
Blocking solution (2.1 g dry milk+42 ml PBS=5% milk in PBS) was placed on a stir plate for 30 min.
Assay plates were washed twice with PBST, and 200 µl/well blocking solution was added to all wells. Assay plates were covered with plate sealers and placed in a 37° C. microplate chamber until just before cell lysate transfer.
Compound stocks were thawed or prepared in DMSO as 5 mM stocks.
Dilution medium (DM, 1% DMSO in DMEM) and compounds were diluted by half-log increments for concentration response analysis.
Conditioned media was dumped from the tissue culture plates, and plates were blotted dry.
Standard solution in DM, compound dilutions in DM, or DM (for high control, negative control, and reference wells) were added to the tissue culture plates, 25 µl/well. Each pair of tissue culture plates was prepared with the same compounds, solutions, and layout; and will be combined later; Tissue culture plates were covered and placed in the 37° C. microplate chamber for 20 min.
VEGF solution was prepared: 110 l VEGF stock+10.89 ml DM=100 ng/ml VEGF
VEGF solution or DM (for reference wells) was added to the tissue culture plates, 25 μl/well.
Tissue culture plates were covered and placed in the 37° C. microplate chamber for 10 min.
RIPA buffer was prepared (240 l NaVO3 stock+240 l PIC stock+24 l NaF stock+23.496 ml RIPA base) and added to the tissue culture plates, 50 µl/well.
Tissue culture plates were covered and placed on a Labline plate shaker for 10 min (speed about 5).
Assay plates were washed twice with PBST.
Cell lysates from matching wells of each pair of tissue culture plates were combined to =200 µl/well, and were pipetted up and down to mix. Cell lysates were transferred to the assay plates using the same layouts, 170 µl/well.
Assay plates were covered with plate sealers and placed on a Labline plate shaker for 2 hr (speed about 5).
Assay plates were washed 5 times with PBST.
Biotin antibody solution was prepared (16 l biotin antibody stock+32 ml PBST=2000× dilution) and added to the assay plates, 150 µl/well.
Assay plates were covered with plate sealers and placed on a Labline plate shaker for 90 min
Streptavidin-HRP solution was prepared (16 l streptavidin-HRP stock+32 ml PBST=2000× dilution) and added to the assay plates, 150 µl/well.
Assay plates were covered with plate sealers and placed on a Labline plate shaker for 60 min
Substrate was added to the assay plates, 100 µl/well.
As assay plates developed, the plates were each monitored on a Molecular Devices Spectramax set to 650 nm, until the signal in the high control wells was around 0.6 OD and the signal in the negative control wells was around 0.1-0.15 OD.
Stop solution was added to the assay plates, 100 µl/well.
The plates were read on a Molecular Devices Spectramax set to 450 nm.
Data was calculated by Assay Explorer, using same-plate high control wells as 0% and reference standard wells as 100% inhibition of KDR phosphorylation. IC50 values were calculated by non-linear regression analysis of the concentration response data.
Target sequence in this assay (P35968 20-1356): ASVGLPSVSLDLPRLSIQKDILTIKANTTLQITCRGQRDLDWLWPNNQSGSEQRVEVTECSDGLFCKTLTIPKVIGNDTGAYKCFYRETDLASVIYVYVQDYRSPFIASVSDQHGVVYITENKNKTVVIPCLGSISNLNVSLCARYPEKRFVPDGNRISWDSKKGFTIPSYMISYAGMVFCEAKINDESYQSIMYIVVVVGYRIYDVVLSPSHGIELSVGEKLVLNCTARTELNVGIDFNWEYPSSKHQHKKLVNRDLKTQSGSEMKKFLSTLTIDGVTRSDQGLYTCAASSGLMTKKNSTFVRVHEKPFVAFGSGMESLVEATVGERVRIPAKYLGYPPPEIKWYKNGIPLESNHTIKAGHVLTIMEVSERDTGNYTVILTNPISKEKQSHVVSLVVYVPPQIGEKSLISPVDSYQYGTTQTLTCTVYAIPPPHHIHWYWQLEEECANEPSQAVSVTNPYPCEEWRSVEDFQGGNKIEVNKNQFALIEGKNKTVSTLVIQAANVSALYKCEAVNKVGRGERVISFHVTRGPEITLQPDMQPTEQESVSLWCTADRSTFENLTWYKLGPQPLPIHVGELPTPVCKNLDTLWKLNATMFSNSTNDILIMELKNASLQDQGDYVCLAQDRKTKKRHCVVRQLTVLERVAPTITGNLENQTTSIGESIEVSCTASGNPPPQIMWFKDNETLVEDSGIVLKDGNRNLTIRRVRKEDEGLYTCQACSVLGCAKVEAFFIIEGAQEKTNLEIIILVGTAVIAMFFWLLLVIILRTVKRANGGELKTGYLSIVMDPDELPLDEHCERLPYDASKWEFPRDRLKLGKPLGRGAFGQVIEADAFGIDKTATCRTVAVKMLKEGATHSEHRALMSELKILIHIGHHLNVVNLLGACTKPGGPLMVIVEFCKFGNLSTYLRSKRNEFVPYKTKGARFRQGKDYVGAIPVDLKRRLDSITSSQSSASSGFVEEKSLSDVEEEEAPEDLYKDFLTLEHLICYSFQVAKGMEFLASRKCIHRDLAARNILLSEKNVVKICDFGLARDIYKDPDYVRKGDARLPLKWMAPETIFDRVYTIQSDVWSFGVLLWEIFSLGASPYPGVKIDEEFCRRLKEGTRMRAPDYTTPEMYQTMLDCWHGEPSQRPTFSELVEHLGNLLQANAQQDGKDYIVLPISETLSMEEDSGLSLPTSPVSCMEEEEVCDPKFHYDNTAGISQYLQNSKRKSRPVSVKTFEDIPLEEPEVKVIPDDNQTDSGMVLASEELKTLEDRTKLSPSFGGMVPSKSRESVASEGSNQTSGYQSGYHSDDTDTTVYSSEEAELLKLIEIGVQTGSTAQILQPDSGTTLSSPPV

Test [2] concerns the target T3, KDR. The test can be described thus: KDR HTRF in vitro kinase assay. On the set-up: purified enzyme (His6-KDR 789-1354, MW 63 kD); His6 (N). Format: biochemical. To be noted: 1 mM ATP; read-out: KDR enzyme inhibition data (Ki). The method, boiled down: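 His6-KDR 789-1354 (7 ng/well) with 0.5 μM biotinylated peptide substrate and 1 mM ATP in HEPES pH 7.1, MgCl2/MnCl2, 60 min at room temperature. EDTA-quenched, detected by streptavidin-XL-665 plus Eu-kryptate anti-phosphotyrosine HTRF after 3 h; IC50 from 620/665 nm ratio.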
Target sequence in this assay (P35968 789-1354): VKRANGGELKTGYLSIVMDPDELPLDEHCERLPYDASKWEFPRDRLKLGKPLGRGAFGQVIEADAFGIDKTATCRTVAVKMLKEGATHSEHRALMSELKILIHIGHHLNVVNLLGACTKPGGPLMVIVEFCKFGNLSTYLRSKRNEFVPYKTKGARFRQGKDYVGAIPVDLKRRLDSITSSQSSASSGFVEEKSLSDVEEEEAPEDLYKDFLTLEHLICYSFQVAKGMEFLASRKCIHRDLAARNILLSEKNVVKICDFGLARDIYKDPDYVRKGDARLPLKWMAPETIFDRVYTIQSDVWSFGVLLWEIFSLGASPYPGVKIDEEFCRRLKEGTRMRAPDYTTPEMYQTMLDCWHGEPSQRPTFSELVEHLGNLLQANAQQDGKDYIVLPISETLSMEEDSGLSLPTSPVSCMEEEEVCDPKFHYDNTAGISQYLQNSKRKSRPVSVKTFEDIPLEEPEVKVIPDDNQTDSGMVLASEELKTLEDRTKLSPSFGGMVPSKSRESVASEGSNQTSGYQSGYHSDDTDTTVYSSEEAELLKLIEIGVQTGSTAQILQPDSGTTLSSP
A general note: Time-resolved FRET reads energy transfer from a long-lived donor to a nearby acceptor.

T1 sequence (Q96GD4 whole entry, the tested form may be a part): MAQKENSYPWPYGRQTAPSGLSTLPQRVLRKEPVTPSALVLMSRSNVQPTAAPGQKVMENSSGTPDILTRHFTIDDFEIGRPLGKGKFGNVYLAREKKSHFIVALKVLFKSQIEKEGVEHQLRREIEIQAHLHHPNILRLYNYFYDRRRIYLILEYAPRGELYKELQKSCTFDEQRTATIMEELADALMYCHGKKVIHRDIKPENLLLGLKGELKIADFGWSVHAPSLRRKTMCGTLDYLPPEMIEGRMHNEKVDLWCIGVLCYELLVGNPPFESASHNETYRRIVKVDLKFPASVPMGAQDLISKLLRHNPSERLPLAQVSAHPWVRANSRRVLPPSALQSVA
T1 sequence (Q9NQS7 826-918 partner limits assumed): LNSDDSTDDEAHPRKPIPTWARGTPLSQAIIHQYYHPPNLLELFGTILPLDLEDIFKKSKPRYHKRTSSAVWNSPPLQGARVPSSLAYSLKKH

For orientation: Ki means a dissociation constant, usually derived from enzyme kinetics or from competition with a known ligand. A word on the IC50: it is the concentration that inhibits the measured activity by half. In the case of `Cc1nn(C)c(C)c1Nc1ncc(Cl)c(N[C@H]2[C@@H](C(N)=O)[C@@H]3C=C[C@H]2C3)n1` [Example 127, (1S,2S,3R,4R)-3-({5-chloro-2-[(1,3,5-trimethyl-1H-pyrazol-4-yl)amino]pyrimidin-4-yl}amino)bicyclo[2.2.1]hept-5-ene-2-carboxamide], the inhibitory constant (Ki) on Aurora B, at Aurora A and on KDR [2] was 100 to 1000 nM each time. Moreover, the IC50 at KDR [1] fell in the range of 100 to 1000 nM.
For `Cn1cc(Nc2ncc(Cl)c(N[C@@H]3CCCC[C@@H]3C(N)=O)n2)cn1.Cn1cc(Nc2ncc(Cl)c(N[C@H]3CCCC[C@H]3C(N)=O)n2)cn1` (mixture of isomers) [Example 147, (1S,2R)-2-({5-chloro-2-[(1-methyl-1H-pyrazol-4-yl)amino]pyrimidin-4-yl}amino)cyclohexanecarboxamide and (1R,2S)-2-({5-chloro-2-[(1-methyl-1H-pyrazol-4-yl)amino]pyrimidin-4-yl}amino)cyclohexanecarboxamide], the Ki on Aurora B, on Aurora A and on KDR [2] was below 100 nM in each case. Further, the half-maximal inhibitory concentration (IC50) on KDR [1] is 100 to 1000 nM.
For the compound `CC1(C)[C@H]2C[C@H](C(N)=O)[C@H](Nc3nc(Nc4cnn(C5CCNCC5)c4)ncc3Cl)[C@@H]1C2` [Example 191, (1R,2R,3S,5R)-2-[(5-chloro-2-{[1-(piperidin-4-yl)-1H-pyrazol-4-yl]amino}pyrimidin-4-yl)amino]-6,6-dimethylbicyclo[3.1.1]heptane-3-carboxamide], the Ki at Aurora B, at Aurora A and at KDR [2] was below 100 nM throughout. Further, the half-maximal inhibitory concentration (IC50) at KDR [1] was in the range of 100 to 1000 nM.
For the compound `CC(C)NC(=O)[C@H]1CCC[C@H]1Nc1nc(Nc2cnn(CCN3CCOCC3)c2)ncc1Cl` [Example 164, (1S,2R)-2-{[5-chloro-2-({1-[2-(morpholin-4-yl)ethyl]-1H-pyrazol-4-yl}amino)pyrimidin-4-yl]amino}-N-isopropylcyclopentanecarboxamide], the Ki is below 100 nM at Aurora B, below 100 nM on Aurora A and 100 to 1000 nM on KDR [2]. Besides, on KDR [1], the IC50 lay in the range of 100 to 1000 nM.
With `CCn1cc(Nc2ncc(Br)c(N[C@H]3[C@@H](C(N)=O)C[C@H]4C[C@@H]3C4(C)C)n2)cn1` [Example 183, (1R,2R,3S,5R)-2-({5-bromo-2-[(1-ethyl-1H-pyrazol-4-yl)amino]pyrimidin-4-yl}amino)-6,6-dimethylbicyclo[3.1.1]heptane-3-carboxamide], the Ki on Aurora B, at Aurora A and on KDR [2] was below 100 nM each time. In addition, the IC50 at KDR [1] lay within 100 to 1000 nM.
Consider `Cn1cc(Nc2ncc(Br)c(N[C@@H]3[C@H](C(N)=O)[C@H]4C=C[C@@H]3C4)n2)cn1.Cn1cc(Nc2ncc(Br)c(N[C@H]3[C@@H](C(N)=O)[C@@H]4C=C[C@H]3C4)n2)cn1` (mixture of isomers) [Example 28, (1S,2S,3R,4R)-3-({5-bromo-2-[(1-methyl-1H-pyrazol-4-yl)amino]pyrimidin-4-yl}amino)bicyclo[2.2.1]hept-5-ene-2-carboxamide and (1R,2R,3S,4S)-3-({5-bromo-2-[(1-methyl-1H-pyrazol-4-yl)amino]pyrimidin-4-yl}amino)bicyclo[2.2.1]hept-5-ene-2-carboxamide], for which the Ki at Aurora B, at Aurora A and at KDR [2] was below 100 nM throughout. For the same compound, on KDR [1], the IC50 was below 100 nM.
With `Cn1cc(Nc2ncc(Cl)c(Nc3ccccc3C3(O)CCOCC3)n2)cn1` [Example 133, 4-[2-({5-chloro-2-[(1-methyl-1H-pyrazol-4-yl)amino]pyrimidin-4-yl}amino)phenyl]tetrahydro-2H-pyran-4-ol], the inhibition constant (Ki) on Aurora B was below 100 nM; at Aurora A, below 100 nM; at KDR [2], 100 to 1000 nM. Besides, on KDR [1], the IC50 lay in the range of 100 to 1000 nM.
As to `CC(C)NC(=O)[C@@H]1CCC[C@@H]1Nc1nc(Nc2cnn(C)c2)ncc1Cl.CC(C)NC(=O)[C@H]1CCC[C@H]1Nc1nc(Nc2cnn(C)c2)ncc1Cl` (mixture of isomers) [Example 156, (1S,2R)-2-({5-chloro-2-[(1-methyl-1H-pyrazol-4-yl)amino]pyrimidin-4-yl}amino)-N-isopropylcyclopentanecarboxamide and (1R,2S)-2-({5-chloro-2-[(1-methyl-1H-pyrazol-4-yl)amino]pyrimidin-4-yl}amino)-N-isopropylcyclopentanecarboxamide], the Ki was below 100 nM on Aurora B, below 100 nM on Aurora A and 100 to 1000 nM on KDR [2]. Further, the half-maximal inhibitory concentration (IC50) on KDR [1] was in the range of 100 to 1000 nM.
In the case of `Cn1cc(Nc2ncc(Cl)c(N[C@@H]3CC=CC[C@@H]3C(N)=O)n2)cn1.Cn1cc(Nc2ncc(Cl)c(N[C@H]3CC=CC[C@H]3C(N)=O)n2)cn1` (mixture of isomers) [Example 146, (1S,6R)-6-({5-chloro-2-[(1-methyl-1H-pyrazol-4-yl)amino]pyrimidin-4-yl}amino)cyclohex-3-ene-1-carboxamide and (1R,6S)-6-({5-chloro-2-[(1-methyl-1H-pyrazol-4-yl)amino]pyrimidin-4-yl}amino)cyclohex-3-ene-1-carboxamide], the Ki at Aurora B is below 100 nM; at Aurora A it was below 100 nM; at KDR [2], 100 to 1000 nM. The IC50 on KDR [1] fell in the range of 100 to 1000 nM.
With `Cn1cc(Nc2ncc(Cl)c(Nc3ccccc3C(C)(C)O)n2)cn1` [Example 138, 2-[2-({5-chloro-2-[(1-methyl-1H-pyrazol-4-yl)amino]pyrimidin-4-yl}amino)phenyl]propan-2-ol], the inhibitory constant (Ki) at Aurora B, on Aurora A and at KDR [2] was below 100 nM each time. The 50% inhibitory concentration (IC50) at KDR [1] lay within 100 to 1000 nM.
Take `CCn1cc(Nc2ncc(Cl)c(Nc3ccc4[nH]ncc4c3)n2)cn1` [Example 176, 5-chloro-N^2-(1-ethyl-1H-pyrazol-4-yl)-N^4-(1H-indazol-5-yl)pyrimidine-2,4-diamine]: the 50% inhibitory concentration (IC50) at KDR [1] is 100 to 1000 nM.
